Reference: patent US7385039B2, “Methods and compositions for regulating imidazoline receptors” (priority 1998, dated 2008)
Where “and” joins values, the source holds several entries; their conditions need not be identical. Identical values can stand only once. Like-named read-outs stand apart in the source and are kept apart here.

Assays:
[1] = tested on: Imidazoline I Sites; experiment: [125I]p-iodoclonidine competition binding to bovine RVLM membranes, imidazoline sites; conditions: for Ki: read-out: Ki, Imidazoline I Sites
Description: Whole bovine brains and adrenal glands were obtained from a local slaughterhouse. Brains were immediately placed on a chilled glass plate, washed with ice-cold Krebs'-Henseleit buffer, and dissected. The rostral medulla was isolated by transecting the brainstem rostrally at the posterior margin of the trapezoid body and caudally 1 cm caudal to the obex. The pia-arachnoid was removed, and the lateral medulla was isolated by a sagittal section through the lateral margin of the pyramids, and then bisected. The ventral half was defined as the ventrolateral medulla (VLM). Brain samples were transported on ice to the laboratory and processed immediately.
Fresh bovine VLM was homogenized by using a polytron (Tekmar Tissuemizer, setting 80 for 2×15 sec) in 20 volumes of ice-cold Hepes-buffered isotonic sucrose (pH brought to 7.4 with Tris base) containing the protease inhibitors (1,10)-phenanthroline (100 μM) and phenylmethylsulfonyl fluoride (50 μM) in order to inhibit degradation of receptor protein. Bovine adrenomedullary cells were homogenized in 15 ml Hepes-buffered isotonic sucrose by 10 strokes in a glass-glass hand-held homogenizer. All three homogenates were centrifuged at 1000×g for 5 min at 4° C. to remove nuclei and debris. The pellets (P1) were resuspended in 20 ml of homogenization buffer, and centrifuged again at 1000×g for 5 min. The combined supernatants were centrifuged at 48,000 g for 18 min at 4° C., and the resulting P2 pellet was resuspended in 10 to 25 volumes of 50 mM Tris-HCl buffer (pH 7.7) containing 5 mM EDTA. After recentrifugation at 48,000 g for 18 min, the resulting membrane pellet was resuspended in Tris-HCl containing 25 mM NaCl, preincubated for 30 min at 25° C., chilled on ice, centrifuged again, resuspended a final time in Tris-HCl alone, centrifuged, flash-frozen, and stored at −70° C. for up to three months.
Radioligand binding assays with [^3H]clonidine or [^125I]p-iodoclonidine for determination of specific membrane binding to VLM and renal medulla imidazoline sites and α2-adrenergic receptors were performed by a modification of methods previously described (Ernsberger P. et al., 1997, J. Hypertension 1997, 15:S9-S23). Membranes were slowly thawed and resuspended in Tris-Hepes buffer (5.0 mM; pH 7.7 at 25° C., containing 0.5 mM EDTA, 0.5 mM EGTA, and 0.5 mM MgCl2) at a concentration of 1 mg protein/ml for the VLM, 4 mg protein/ml for the renal medulla, and 0.2 mg protein/ml for adrenomedullary cells. Assays were conducted in a total volume of 250 μl in polypropylene 96-well plates (Beckman Macrowell), and each well contained 125 μl membrane suspension, 25 μl radioligand, and 100 μl drug or vehicle. Incubations were initiated by the addition of membrane and were carried out for 30 min at 22° C. Nonspecific binding was defined in the presence of 10 μM BDF-6143, an imidazoline adrenergic agent. Specific α2-adrenergic binding was defined by inhibition with (−)epinephrine (0.1 mM). In experiments using catecholamines, all samples contained ascorbic acid in a final concentration of 0.001%. Incubations were terminated by vacuum filtration using a cell harvester (Brandel) equipped with Teflon tubing to reduce absorption of the radioligand over glass fiber filters (Schleicher & Schuell #34) which were preincubated for 4 h at 4° C. in 0.03% polyethylimine to reduce nonspecific binding to the filter. The filters were washed four times with 5 ml ice-cold Tris-HCl, placed in scintillation vials, covered with 4 ml scintillation cocktail (BioSafe II, Research Products International), and counted at 50% efficiency (Beckman LS5801). Protein was assayed by the bicinchoninic acid method.
Data were obtained as dpm and transferred to the Equilibrium Binding Data Analysis (EBDA) program for initial processing; 4 to 10 experiments were analyzed simultaneously by using the LIGAND program for nonlinear curve-fitting. Protein assay data were also analyzed by nonlinear curve-fitting.
Competition binding assays. […]

[2] = tested on: I3R; experiment: I3R model: insulin release from human islets; format: cell-based
Protocol: Islets of Langerhans from male Wistar rats were isolated by collagenase digestion in a medium of bicarbonate-buffered physiological saline solution containing 4 mM D-glucose and 1 mM CaCl2. Islets were selected under a binocular dissecting microscope and were used within two hours of isolation. Islets from humans were isolated from heart-beating cadaver organ donors by collagenase digestion and density gradient centrifugation (Chan, S. L. F., et al., 1997, Brit. J. Pharmacol. 120:926-932).
Incubations were done in 96-well plates. Isolated islets were incubated in 100 μl buffer solution supplemented with bovine serum albumin in humidified air: CO2 (95:5%) at 37° C. in the presence of test agents. To eliminate any potential alpha-2 responses, yohimbine (10 μM), a potent alpha2-adrenergic blocker, was included in all incubations. After 60 min incubation, samples of medium were removed for measurement of insulin release by radioimmunoassay using anti-bovine insulin antiserum. […]
I3R model: Insulin release from pancreas (Eglen, R. M., Hudson, A. L., Kendall, D. A., Nutt, D. J., Morgan, N. G., Wilson, V. G. & Dillon, M. P. (1998) TIPS 19, 381-390; Chan, S. L. F. (1998) Gen. Pharmacol. 31, 525-529; Morgan, N. G. (1999) Exp. Opin. Invest. Drugs 8, 575-584). […] After incubation, insulin levels in supernatants were analyzed by RIA. […]

SMILES: O=C(O)Cc1cn(C2OC(COP(=O)(O)O)C(O)C2O)cn1 [IAA-RP, 1-(β-D-ribofuranosyl)-imidazole-4-acetic acid 5′ phosphate]
- affinity of high-affinity RVLM sites relative to low-affinity RVLM sites and adrenal I1R sites [1]: > 100 fold
- fold greater affinity than IAA-R in displacing [125I]p-iodoclonidine [1]: > 100 fold
- Percent Sites, Imidazoline I Sites (high affinity component) ([1]; Control (no masking ligand)): 71% and 71±5%
- Ki ([1]; Control (no masking ligand)): 160 ± 38 nM
- selectivity for I-Rs over α2-sites ([1]; RVLM): > 1000 fold
- Percent Sites, Imidazoline I Sites (high affinity component) ([1]; With epinephrine (α2Rs masked)): 86% and 86±4%
- Ki ([1]; With epinephrine (α2Rs masked)): 100 ± 19 nM
- EC50 [2]: ~3 nM
